# According to PubChem BioAssay (NCI):
#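 Briefly, cells in 96-well plates were exposed to five compound concentrations for 48 h, and endpoints were estimated by linear interpolation. Abbreviation: GI50, concentration required for 50% inhibition of growth. TGI denotes the concentration required for complete inhibition of growth.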
# What was measured:
# Experiment in all cases: DTP human tumour cell line panel, 48 h
# 786-0 renal = test system: 786-0 renal
# A498 renal = test system: A498 renal
# A549 NSCLC = test system: A549 NSCLC
# ACHN renal = test system: ACHN renal
# BT-549 breast = test system: BT-549 breast
# CAKI-1 renal = test system: CAKI-1 renal
# CCRF-CEM leukemia = test system: CCRF-CEM leukemia
# COLO 205 colon = test system: COLO 205 colon
# DU-145 prostate = test system: DU-145 prostate
# EKVX NSCLC = test system: EKVX NSCLC
# HCC-2998 colon = test system: HCC-2998 colon
# HCT-116 colon = test system: HCT-116 colon
# HCT-15 colon = test system: HCT-15 colon
# HL-60(TB) leukemia = test system: HL-60(TB) leukemia
# HOP-62 NSCLC = test system: HOP-62 NSCLC
# HOP-92 NSCLC = test system: HOP-92 NSCLC
# HS 578T breast = test system: HS 578T breast
# HT29 colon = test system: HT29 colon
# IGROV1 ovarian = test system: IGROV1 ovarian
# K-562 leukemia = test system: K-562 leukemia
# KM12 colon = test system: KM12 colon
# LOX IMVI melanoma = test system: LOX IMVI melanoma
# M14 melanoma = test system: M14 melanoma
# MALME-3M melanoma = test system: MALME-3M melanoma
# MCF7 breast = test system: MCF7 breast
# MDA-MB-231 breast = test system: MDA-MB-231 breast
# MDA-MB-435 = test system: MDA-MB-435
# MDA-MB-468 breast = test system: MDA-MB-468 breast
# MOLT-4 leukemia = test system: MOLT-4 leukemia
# NCI-H226 lung = test system: NCI-H226 lung
# NCI-H23 lung = test system: NCI-H23 lung
# NCI-H460 lung = test system: NCI-H460 lung
# NCI-H522 lung = test system: NCI-H522 lung
# NCI/ADR-RES ovarian = test system: NCI/ADR-RES ovarian
# OVCAR-3 ovarian = test system: OVCAR-3 ovarian
# OVCAR-4 ovarian = test system: OVCAR-4 ovarian
# OVCAR-5 ovarian = test system: OVCAR-5 ovarian
# OVCAR-8 ovarian = test system: OVCAR-8 ovarian
# PC-3 prostate = test system: PC-3 prostate
# RPMI-8226 leukemia = test system: RPMI-8226 leukemia
# RXF 393 renal = test system: RXF 393 renal
# SF-268 CNS = test system: SF-268 CNS
# SF-295 CNS = test system: SF-295 CNS
# SF-539 CNS = test system: SF-539 CNS
# SK-MEL-2 melanoma = test system: SK-MEL-2 melanoma
# SK-MEL-28 melanoma = test system: SK-MEL-28 melanoma
# SK-MEL-5 melanoma = test system: SK-MEL-5 melanoma
# SK-OV-3 ovarian = test system: SK-OV-3 ovarian
# SN12C renal = test system: SN12C renal
# SNB-19 CNS = test system: SNB-19 CNS
# SNB-75 CNS = test system: SNB-75 CNS
# SR leukemia = test system: SR leukemia
# SW-620 colon = test system: SW-620 colon
# T-47D breast = test system: T-47D breast
# TK-10 renal = test system: TK-10 renal
# U251 CNS = test system: U251 CNS
# UACC-257 melanoma = test system: UACC-257 melanoma
# UACC-62 melanoma = test system: UACC-62 melanoma
# UO-31 renal = test system: UO-31 renal
compound,measurement,setting,value
Clc1ccc(CNc2nc(SCCN3CCOCC3)nc3c2cnn3CC(Cl)c2ccc(Br)cc2)cc1 (stereo not drawn),GI50,786-0 renal,5.62 µM
same,TGI,786-0 renal,> 100 µM
same,GI50,A498 renal,54.1 µM
same,TGI,A498 renal,> 100 µM
same,GI50,A549 NSCLC,4.18 µM
same,TGI,A549 NSCLC,> 100 µM
same,GI50,ACHN renal,4.19 µM
same,TGI,ACHN renal,> 100 µM
same,GI50,BT-549 breast,18.4 µM
same,TGI,BT-549 breast,94.6 µM
same,GI50,CAKI-1 renal,5.45 µM
same,TGI,CAKI-1 renal,> 100 µM
same,GI50,CCRF-CEM leukemia,3.85 µM
same,TGI,CCRF-CEM leukemia,> 100 µM
same,GI50,COLO 205 colon,5.71 µM
same,TGI,COLO 205 colon,32 µM
same,GI50,DU-145 prostate,46.4 µM
same,TGI,DU-145 prostate,> 100 µM
same,GI50,EKVX NSCLC,4.55 µM
same,TGI,EKVX NSCLC,> 100 µM
same,GI50,HCC-2998 colon,4.4 µM
same,TGI,HCC-2998 colon,> 100 µM
same,GI50,HCT-116 colon,3.81 µM
same,TGI,HCT-116 colon,> 100 µM
same,GI50,HCT-15 colon,3.03 µM
same,TGI,HCT-15 colon,11 µM
same,GI50,HL-60(TB) leukemia,2810 nM
same,TGI,HL-60(TB) leukemia,26.8 µM
same,GI50,HOP-62 NSCLC,63 µM
same,TGI,HOP-62 NSCLC,> 100 µM
same,GI50,HOP-92 NSCLC,8.71 µM
same,TGI,HOP-92 NSCLC,> 100 µM
same,GI50,HS 578T breast,9.59 µM
same,TGI,HS 578T breast,> 100 µM
same,GI50,HT29 colon,1910 nM
same,TGI,HT29 colon,4.04 µM
same,GI50,IGROV1 ovarian,65.4 µM
same,TGI,IGROV1 ovarian,> 100 µM
same,GI50,K-562 leukemia,2850 nM
same,TGI,K-562 leukemia,> 100 µM
same,GI50,KM12 colon,5.39 µM
same,TGI,KM12 colon,> 100 µM
same,GI50,LOX IMVI melanoma,4.49 µM
same,TGI,LOX IMVI melanoma,> 100 µM
same,GI50,M14 melanoma,6.01 µM
same,TGI,M14 melanoma,> 100 µM
same,GI50,MALME-3M melanoma,3.94 µM
same,TGI,MALME-3M melanoma,28.9 µM
same,GI50,MCF7 breast,3.45 µM
same,TGI,MCF7 breast,> 100 µM
same,GI50,MDA-MB-231 breast,9.03 µM
same,TGI,MDA-MB-231 breast,> 100 µM
same,GI50,MDA-MB-435,6.65 µM
same,TGI,MDA-MB-435,> 100 µM
same,GI50,MDA-MB-468 breast,3.3 µM
same,TGI,MDA-MB-468 breast,18.9 µM
same,GI50,MOLT-4 leukemia,2620 nM
same,TGI,MOLT-4 leukemia,8.27 µM
same,GI50,NCI-H226 lung,5.68 µM
same,TGI,NCI-H226 lung,> 100 µM
same,GI50,NCI-H23 lung,7.84 µM
same,TGI,NCI-H23 lung,> 100 µM
same,GI50,NCI-H460 lung,4.57 µM
same,TGI,NCI-H460 lung,> 100 µM
same,GI50,NCI-H522 lung,6.17 µM
same,TGI,NCI-H522 lung,> 100 µM
same,GI50,NCI/ADR-RES ovarian,4.14 µM
same,TGI,NCI/ADR-RES ovarian,> 100 µM
same,GI50,OVCAR-3 ovarian,9.59 µM
same,TGI,OVCAR-3 ovarian,> 100 µM
same,GI50,OVCAR-4 ovarian,5.3 µM
same,TGI,OVCAR-4 ovarian,> 100 µM
same,GI50,OVCAR-5 ovarian,> 100 µM
same,TGI,OVCAR-5 ovarian,> 100 µM
same,GI50,OVCAR-8 ovarian,17.9 µM
same,TGI,OVCAR-8 ovarian,> 100 µM
same,GI50,PC-3 prostate,4.3 µM
same,TGI,PC-3 prostate,> 100 µM
same,GI50,RPMI-8226 leukemia,3.52 µM
same,TGI,RPMI-8226 leukemia,> 100 µM
same,GI50,RXF 393 renal,1720 nM
same,TGI,RXF 393 renal,8.87 µM
same,GI50,SF-268 CNS,7.43 µM
same,TGI,SF-268 CNS,> 100 µM
same,GI50,SF-295 CNS,3.91 µM
same,TGI,SF-295 CNS,> 100 µM
same,GI50,SF-539 CNS,4.37 µM
same,TGI,SF-539 CNS,> 100 µM
same,GI50,SK-MEL-2 melanoma,13 µM
same,TGI,SK-MEL-2 melanoma,63.1 µM
same,GI50,SK-MEL-28 melanoma,14 µM
same,TGI,SK-MEL-28 melanoma,> 100 µM
same,GI50,SK-MEL-5 melanoma,7.66 µM
same,TGI,SK-MEL-5 melanoma,21 µM
same,GI50,SK-OV-3 ovarian,> 100 µM
same,TGI,SK-OV-3 ovarian,> 100 µM
same,GI50,SN12C renal,6.14 µM
same,TGI,SN12C renal,> 100 µM
same,GI50,SNB-19 CNS,8.34 µM
same,TGI,SNB-19 CNS,> 100 µM
same,GI50,SNB-75 CNS,4.65 µM
same,TGI,SNB-75 CNS,> 100 µM
same,GI50,SR leukemia,1680 nM
same,TGI,SR leukemia,5.63 µM
same,GI50,SW-620 colon,6.11 µM
same,TGI,SW-620 colon,91.7 µM
same,GI50,T-47D breast,3.05 µM
same,TGI,T-47D breast,> 100 µM
same,GI50,TK-10 renal,31.9 µM
same,TGI,TK-10 renal,> 100 µM
same,GI50,U251 CNS,5.35 µM
same,TGI,U251 CNS,> 100 µM
same,GI50,UACC-257 melanoma,29.9 µM
same,TGI,UACC-257 melanoma,> 100 µM
same,GI50,UACC-62 melanoma,11.7 µM
same,TGI,UACC-62 melanoma,> 100 µM
same,GI50,UO-31 renal,3.65 µM
same,TGI,UO-31 renal,> 100 µM
